Active and inactive are the calls of the source. No rule for the calls is given here.
Test system: CCRIS mutagenicity, Ames/micronucleus/aberration tests
Experiment: CCRIS mutagenicity studies
[1] = Test System: AMES SALMONELLA TYPHIMURIUM, Strain/Indicator: TA98, Metabolic Activation: NONE, Method: PREINCUBATION
[2] = Test System: AMES SALMONELLA TYPHIMURIUM, Strain/Indicator: TA100, Metabolic Activation: RAT, LIVER, S-9, AROCLOR 1254, Method: STANDARD PLATE
[3] = Test System: AMES SALMONELLA TYPHIMURIUM, Strain/Indicator: TA100, Metabolic Activation: NONE, Method: STANDARD PLATE

CC(=O)[O-].CC(=O)[O-].O.O.O.[Pb+2]
mutagenic call (End Point: IN VITRO MICRONUCLEUS, Test System: HAMSTER V79 CELLS, Metabolic Activation: NONE): active; positive (aneugenic above 0.05 um)
mutagenic call (End Point: IN VIVO MICRONUCLEUS, Test System: BLOOD ERYTHROCYTES AND RETICULOCYTES, Species: RAT, Strain/Sex: WISTAR/MALE, FEMALE (SUCKLING), Route: IP INJECTION): inactive; negative
mutagenic call (End Point: IN VIVO MICRONUCLEUS, Test System: RETICULOCYTES, ERYTHROCYTES, Species: RAT, Strain/Sex: WISTAR/MALE, FEMALE (SUCKLING), Route: ORAL): active; positive
mutagenic call (End Point: In vivo micronucleus, Test System: Bone marrow polychromatic erythrocytes, Species: Rat, Strain/Sex: Wistar/Male, female, Route: Oral): active; positive

CC#N
mutagenic call (End Point: IN VITRO CHROMOSOMAL ABERRATIONS, Test System: CHINESE HAMSTER OVARY CELLS, Metabolic Activation: NONE): inactive; negative
mutagenic call (End Point: IN VITRO CHROMOSOMAL ABERRATIONS, Test System: CHINESE HAMSTER OVARY CELLS, Metabolic Activation: RAT, LIVER, S-9, AROCLOR 1254): active; positive; statistically significant increase, but not dose-related
mutagenic call (Test System: AMES SALMONELLA TYPHIMURIUM, Strain/Indicator: TA98, Metabolic Activation: HAMSTER, LIVER, S-9, AROCLOR 1254 (10 OR 30%), Method: PREINCUBATION): inactive; negative
mutagenic call [1]: inactive; negative
mutagenic call (Test System: AMES SALMONELLA TYPHIMURIUM, Strain/Indicator: TA98, Metabolic Activation: RAT, LIVER, S-9, ACETONITRILE (AUTOINDUCTION), Method: PREINCUBATION): inactive; negative
mutagenic call (Test System: AMES SALMONELLA TYPHIMURIUM, Strain/Indicator: TA98, Metabolic Activation: RAT, LIVER, S-9, AROCLOR 1254 (10 OR 30%), Method: PREINCUBATION): inactive; negative
mutagenic call (Test System: AMES SALMONELLA TYPHIMURIUM, Strain/Indicator: TA98, Metabolic Activation: RAT, LIVER, S-9, PHENOBARBITONE, Method: PREINCUBATION): inactive; negative
mutagenic call (Test System: AMES SALMONELLA TYPHIMURIUM, Strain/Indicator: TA100, Metabolic Activation: HAMSTER, LIVER, S-9, AROCLOR 1254 (10 OR 30%), Method: PREINCUBATION): inactive; negative
mutagenic call (Test System: AMES SALMONELLA TYPHIMURIUM, Strain/Indicator: TA100, Metabolic Activation: NONE, Method: PREINCUBATION): inactive; negative
mutagenic call (Test System: AMES SALMONELLA TYPHIMURIUM, Strain/Indicator: TA100, Metabolic Activation: RAT, LIVER, S-9, ACETONITRILE (AUTOINDUCTION), Method: PREINCUBATION): inactive; negative
mutagenic call (Test System: AMES SALMONELLA TYPHIMURIUM, Strain/Indicator: TA100, Metabolic Activation: RAT, LIVER, S-9, AROCLOR 1254 (10 OR 30%), Method: PREINCUBATION): inactive; negative
mutagenic call (Test System: AMES SALMONELLA TYPHIMURIUM, Strain/Indicator: TA100, Metabolic Activation: RAT, LIVER, S-9, PHENOBARBITONE, Method: PREINCUBATION): inactive; negative
mutagenic call (Test System: AMES SALMONELLA TYPHIMURIUM, Strain/Indicator: TA1535, Metabolic Activation: HAMSTER, LIVER, S-9, AROCLOR 1254 (10 OR 30%), Method: PREINCUBATION): inactive; negative
mutagenic call (Test System: AMES SALMONELLA TYPHIMURIUM, Strain/Indicator: TA1535, Metabolic Activation: NONE, Method: PREINCUBATION): inactive; negative
mutagenic call (Test System: AMES SALMONELLA TYPHIMURIUM, Strain/Indicator: TA1535, Metabolic Activation: RAT, LIVER, S-9, AROCLOR 1254 (10 OR 30%), Method: PREINCUBATION): inactive; negative
mutagenic call (Test System: AMES SALMONELLA TYPHIMURIUM, Strain/Indicator: TA1537, Metabolic Activation: HAMSTER, S-9, AROCLOR 1254 (10 OR 30%), Method: PREINCUBATION): inactive; negative
mutagenic call (Test System: AMES SALMONELLA TYPHIMURIUM, Strain/Indicator: TA1537, Metabolic Activation: NONE, Method: PREINCUBATION): inactive; negative
mutagenic call (Test System: AMES SALMONELLA TYPHIMURIUM, Strain/Indicator: TA1537, Metabolic Activation: RAT, LIVER, S-9, AROCLOR 1254 (10 OR 30%), Method: PREINCUBATION): inactive; negative

Cc1ccc2c(c1)-c1cc3ccccc3c3cc4ccccc4c-2c13
mutagenic call (Test System: AMES SALMONELLA TYPHIMURIUM, Strain/Indicator: TA100, Metabolic Activation: RAT, LIVER, S-9, 3-METHYLCHOLANTHRENE, Method: STANDARD PLATE): active; positive

Nc1ccc(Nc2ccc([N+](=O)[O-])cc2)cc1
mutagenic call (Test System: AMES SALMONELLA TYPHIMURIUM, Strain/Indicator: TA98(NR), Metabolic Activation: NONE, Method: PREINCUBATION): inactive; negative
mutagenic call [1]: active; positive
mutagenic call (Test System: AMES SALMONELLA TYPHIMURIUM, Strain/Indicator: TA98, Metabolic Activation: RAT, LIVER, S-9, AROCLOR 1254, Method: PREINCUBATION): active; positive

Cn1c2ccc3ccccc3c2c2c3ccccc3ccc21
mutagenic call [2]: active; positive
mutagenic call (Test System: AMES SALMONELLA TYPHIMURIUM, Strain/Indicator: TM677, Metabolic Activation: RAT, LIVER, S-9, 3-METHYLCHOLANTHRENE (1%), Method: PREINCUBATION): inactive; negative
mutagenic call (Test System: AMES SALMONELLA TYPHIMURIUM, Strain/Indicator: TM677, Metabolic Activation: RAT, LIVER, S-9, 3-METHYLCHOLANTHRENE (10%), Method: PREINCUBATION): inactive; negative
mutagenic call (Test System: AMES SALMONELLA TYPHIMURIUM, Strain/Indicator: TM677, Metabolic Activation: RAT, LIVER, S-9, AROCLOR 1254 (10%), Method: PREINCUBATION): inactive; negative

Oc1ccc2c3ccccc3c3cc4ccccc4cc3c2c1O
mutagenic call (Test System: AMES SALMONELLA TYPHIMURIUM, Strain/Indicator: TA100, Metabolic Activation: RAT, LIVER, S-9, AROCLOR 1254, Method: PREINCUBATION): active; positive

CC(C)(C)NC[C@H](O)COc1ccccc1C1CCCC1
mutagenic call (Test System: AMES SALMONELLA TYPHIMURIUM, Strain/Indicator: TA98, Metabolic Activation: NONE, Method: STANDARD PLATE): active; positive
mutagenic call (Test System: AMES SALMONELLA TYPHIMURIUM, Strain/Indicator: TA98, Metabolic Activation: RAT, LIVER, S-9, AROCLOR 1254, Method: STANDARD PLATE): inactive; negative
mutagenic call [3]: inactive; negative
mutagenic call [2]: inactive; negative
mutagenic call (Test System: AMES SALMONELLA TYPHIMURIUM, Strain/Indicator: TA102, Metabolic Activation: NONE, Method: STANDARD PLATE): inactive; negative
mutagenic call (Test System: AMES SALMONELLA TYPHIMURIUM, Strain/Indicator: TA102, Metabolic Activation: RAT, LIVER, S-9, AROCLOR 1254, Method: STANDARD PLATE): inactive; negative

COc1nc(C(Cl)(Cl)Cl)c(Cl)c(OC)c1Cl
mutagenic call (Test System: Mouse lymphoma, Strain/Indicator: L5178Y (tk+/tk-), Metabolic Activation: Rat, Liver, S-9, Aroclor 1254, Method: Suspension/plate): active; positive

O=CNc1ccc(Oc2ccc(Cl)cc2Cl)cc1
mutagenic call [3]: inactive; negative
mutagenic call (Test System: AMES SALMONELLA TYPHIMURIUM, Strain/Indicator: TA100, Metabolic Activation: RAT, LIVER, S-9, KANECLOR 500, Method: STANDARD PLATE): active; positive

C=C1/C(=C\C=C2/CCC[C@]3(C)[C@@H]([C@H](C)CCCC(C)(C)O)CC[C@@H]23)C[C@@H](O)C[C@@H]1O
mutagenic call (End Point: IN VIVO CHROMOSOMAL ABERRATIONS, Test System: BONE MARROW CELLS, Species: RAT, Strain/Sex: WISTAR, Route: ORAL): inactive; negative

Cc1cccc2c1cc1ccc3cccc4ccc2c1c34
mutagenic call (Test System: AMES SALMONELLA TYPHIMURIUM, Strain/Indicator: TA100, Metabolic Activation: RAT, INTACT HEPATOCYTES, AROCLOR 1254, Method: PREINCUBATION): inactive; negative
mutagenic call (Test System: AMES SALMONELLA TYPHIMURIUM, Strain/Indicator: TA100, Metabolic Activation: RAT, NADPH-FORTIFIED HOMOGENIZED HEPATOCYTES, AROCLOR 1254, Method: PREINCUBATION): active; positive

CN(CCCC(=O)O)N=O
mutagenic call (Test System: AMES SALMONELLA TYPHIMURIUM, Strain/Indicator: TA1535, Metabolic Activation: RAT, LIVER, S-9, KC500 OR PHENOBARBITAL, Method: LIQUID SUSPENSION): active; positive
